Results from patent US8765949B2, “CCR2 receptor antagonists and uses thereof” (Boehringer Ingelheim International GmbH, priority 2009, dated 2014).

molecular target: T1, CCR2 (Homo sapiens, UniProt P41597); experiment: CCR2 receptor membrane binding assay ([125I]MCP-1, THP-1 membranes, SPA beads); conditions: dissociation constant hKi; THP-1 cell membranes, [125I]MCP-1, bound radioactivity after 8 h
T1 construct: Membranes were prepared from THP-1 cells; endogenous in cells; host or cells: THP-1 (human acute monocytic leukaemia cells), membrane preparation
T1 sequence (P41597 1-360 isoform P41597-2): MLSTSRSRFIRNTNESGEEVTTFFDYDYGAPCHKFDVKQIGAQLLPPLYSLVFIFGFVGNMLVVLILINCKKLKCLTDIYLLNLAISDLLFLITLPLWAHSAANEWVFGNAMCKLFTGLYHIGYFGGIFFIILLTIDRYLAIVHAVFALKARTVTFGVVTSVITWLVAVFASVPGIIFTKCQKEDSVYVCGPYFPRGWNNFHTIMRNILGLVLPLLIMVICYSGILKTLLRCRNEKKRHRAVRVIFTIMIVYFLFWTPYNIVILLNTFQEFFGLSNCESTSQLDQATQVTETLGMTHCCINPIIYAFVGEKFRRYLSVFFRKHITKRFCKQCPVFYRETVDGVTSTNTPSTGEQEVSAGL
Description: The above exemplary substances have been tested for binding to CCR2 using a binding assay as outlined herein below:
THP-1 cells (human acute monocytic leukaemia cells) were cultured under standardized conditions at 37° C. and 5% CO2 in a humidified incubator. THP-1 cells were cultivated in RPMI 1640 medium (Gibco 21875) containing 1% MEM-NEAA (Gibso 11140) 2 mM L-glutamine, 1.5 g/L sodium bicarbonate, 4.5 g/L glucose, 10 mM HEPES and 1.0 mM sodium pyruvate, 90%; 10% fetal calf serum (FCS Gibco 10500-064).
Membranes were prepared from THP-1 cells. THP-1 cells were centrifuged at 300×g at 4° C. for 10 min. The cell pellet was resuspendet in Phosphate Buffer Saline (PBS, including 10 μM Pefabloc and a protease inhibitor mix ‘complete’, Boehringer Mannheim (1 tablet/50 ml)), to a concentration of […]. The membrane preparation was performed by disrupting the cells by nitrogen […] (at 50 bar, for 1 h) in a “Nitrogen Bombe” (Parr Instrument). Cell debris was removed by centrifugation (800×g at 4° C., 1 min). The supernatant was centrifuged at 80000×g, 4° C. for 30 min to sediment the cell membranes. Usually 50 mg of protein (Bradford assay) were yielded from 1×10E9 cells. The membranes were resuspendet in 25 mM HEPES, 25 mM MgCl2, 1 mM CaCl2, 10% Glycerine for storage in aliquots at −80° C. in 25 mM HEPES, 25 mM MgCl2, 1 mM CaCl2, 10% Glycerine and stored at −80° C.
Receptor Membrane Binding Assay:
Perkin Elmer NEX 332 Jod 125 MCP-1, Stock: 2200 Ci/mmol solved in 2000 μl assay buffer, stored at −20° C. THP-1 membrane were adjusted with 25 mM HEPES, pH 7.2; 5 mM MgCl2; 0.5 mM CaCl2; 0.2% BSA assay buffer to a concentration of 2.5 μg/15 μl. Amersham Biosciences PVT-WGA Beads (RPNQ0001) were adjusted with assay buffer to a concentration of 0.24 mg/30 μl. For preparation of the membrane-bead-suspension membranes and beads were incubated for 30 min at RT under rotation (60 rpm) with a ratio of 1:2. Test compounds dissolved in 100% DMSO to a concentration of 10 mM and are further diluted with 100% DMSO to 1 mM. All additional compound dilutions were obtained with assay buffer, final 1% DMSO. Compounds, membrane-bead-suspension and [125I]MCP-1 (ca. 25000 cpm/10 μl) were incubated. Bound radioactivity was determined by scintillation counter after 8 h. Determination of affinity of test compounds (dissociation constant hKi) is calculated by iterative fitting of experimental data using the “easy sys” program, which is based on law of mass action (Schittkowski K. (1994), Numerische Mathematik, Vol. 68, 129-142).

Row | SMILES | Ki [nM]
1 | CO[C@H]1COCC[C@H]1NC1CCN(C(=O)c2ncnc(NC[C@@H]3CCC[C@H](c4cccc(C(F)(F)F)c4)O3)c2C)CC1 [Example 46] | 302
2 | COC1CCN(C2CCN(C(=O)c3ncnc(NC[C@H]4CCC[C@@H](c5ccc(C(F)(F)F)cc5)O4)c3C)CC2)CC1 [Example 4] | 26
3 | Cc1c(NC[C@H]2CCC[C@@H](c3cccc(C(F)(F)F)c3)O2)ncnc1C(=O)N1CCC(N2CCC(N(C)S(C)(=O)=O)CC2)CC1 [Example 8] | 185
4 | CO[C@H]1COCC[C@H]1NC1CCN(C(=O)c2cc(NC[C@H]3CCC[C@@H](c4ccc(OC(F)(F)F)cc4)O3)ncn2)CC1 [Example 28l] | 2
5 | COC1COCCC1NC1CCN(C(=O)c2ncnc(NC[C@@H]3CCC[C@H](c4ccc(C)c(F)c4)O3)c2C)CC1 (stereo partly drawn) [Example 28c] | 0.4
6 | CO[C@H]1COCC[C@H]1NC1CCN(C(=O)c2ncnc(NC[C@H]3CCC[C@@H](c4ccc(C)cc4)O3)c2C)CC1 [Example 30] | 5
7 | CO[C@@H]1COCC[C@@H]1NC1CCN(C(=O)c2ncnc(NC[C@@H]3CCC[C@H](c4ccccc4)O3)c2C)CC1 [Example 39] | 287
8 | COc1cc(NC[C@H]2CCC[C@@H](c3ccc(C)cc3)O2)cc(C(=O)N2CCC(N[C@H]3CCOC[C@H]3OC)CC2)n1 [Example 28n] | 38
9 | CO[C@@H]1COCC[C@@H]1NC1CCN(C(=O)c2cc(NC[C@H]3CCC[C@@H](c4ccc(C)cc4)O3)ncn2)CC1 [Example 28i] | 221
10 | CO[C@H]1COCC[C@H]1NC1CCN(C(=O)c2ncnc(NC[C@@H]3CCC[C@H](c4ccc(C(F)(F)F)cc4)O3)c2C)CC1 [Example 36] | 51
11 | Cc1c(NCC2CCCC(c3ccc(Cl)cc3)O2)ncnc1C(=O)N1CCC(N2CCC(N(C)S(C)(=O)=O)CC2)CC1 (stereo not drawn) [Example 15] | 24
12 | Cc1c(NCC2CCCC(c3ccc(C(F)(F)F)o3)O2)ncnc1C(=O)N1CCC(N2CCC(N(C)S(C)(=O)=O)CC2)CC1 (stereo not drawn) [Example 28b] | 0.5
13 | CO[C@@H]1COCC[C@@H]1NC1CCN(C(=O)c2ncnc(NC[C@H]3CCC[C@@H](c4ccc(C(F)(F)F)cc4)O3)c2C)CC1 [Example 52] | 1
14 | Cc1c(NC[C@H]2CCC[C@@H](c3ccc(C(F)(F)F)cc3)O2)ncnc1C(=O)N1CCC(N2CCC(N(C)S(C)(=O)=O)CC2)CC1 [Example 24] | 4
15 | CO[C@@H]1COCC[C@@H]1NC1CCN(C(=O)c2ncnc(NC[C@@H]3CCC[C@H](c4ccc(C(F)(F)F)cc4)O3)c2C)CC1 [Example 37] | 25
16 | Cc1cccc([C@H]2CCC[C@@H](CNc3ncnc(C(=O)N4CCC(N5CCC(N(C)S(C)(=O)=O)CC5)CC4)c3C)O2)c1 [Example 23] | 494
17 | CO[C@@H]1COCC[C@@H]1NC1CCN(C(=O)c2cc(NC[C@H]3CCC[C@@H](c4ccc(C(F)(F)F)cc4)O3)ncn2)CC1 [Example 28j] | 1
18 | Cc1ccc([C@@H]2CCC[C@H](CNc3nc(C)nc(C(=O)N4CCC(N5CCC(N(C)S(C)(=O)=O)CC5)CC4)c3C)O2)cc1 [Example 20] | 11
19 | CO[C@H]1COCC[C@H]1NC1CCN(C(=O)c2ncnc(NC[C@H]3CCC[C@@H](c4ccc(Cl)cc4)O3)c2C)CC1 [Example 42] | 8
20 | CO[C@H]1COCC[C@H]1NC1CCN(C(=O)c2cc(NC[C@H]3CCC[C@@H](c4ccc(C(F)(F)F)cc4)O3)ncn2)CC1 [Example 28k] | 3
21 | CO[C@@H]1COCC[C@@H]1NC1CCN(C(=O)c2ncnc(NC[C@H]3CCC[C@@H](c4cccc(C)c4)O3)c2C)CC1 [Example 49] | 4
22 | CO[C@@H]1COCC[C@@H]1NC1CCN(C(=O)c2ncnc(NC[C@@H]3CCC[C@H](c4ccc(Cl)cc4)O3)c2C)CC1 [Example 43] | 39
23 | Cc1c(NC[C@H]2CCC[C@@H](c3ccc(C(F)(F)F)nc3)O2)ncnc1C(=O)N1CCC(N2CCC(N(C)S(C)(=O)=O)CC2)CC1 [Example 25] | 418
24 | CO[C@H]1COCC[C@H]1N(C)C1CCN(C(=O)c2ncnc(NC[C@H]3CCC[C@@H](c4ccc(C)cc4)O3)c2C)CC1 [Example 54] | 28
25 | Cc1c(NC[C@@H]2CCC[C@H](c3cccc(C(F)(F)F)c3)O2)ncnc1C(=O)N1CCC(N2CCC(N(C)S(C)(=O)=O)CC2)CC1 [Example 28a] | 45
26 | Cc1cccc([C@@H]2CCC[C@H](CNc3ncnc(C(=O)N4CCC(N5CCC(N(C)S(C)(=O)=O)CC5)CC4)c3C)O2)c1 [Example 21] | 11
27 | Cc1c(NCC2CCCC(c3ccc(F)cc3)O2)ncnc1C(=O)N1CCC(N2CCC(N(C)S(C)(=O)=O)CC2)CC1 (stereo not drawn) [Example 14] | 479

Second part, the compound after the results:

Row | Ki [nM] | SMILES
28 | 5 | COc1nc(NC[C@H]2CCC[C@@H](c3ccccc3)O2)c(C)c(C(=O)N2CCC(N[C@H]3CCOC[C@H]3OC)CC2)n1 [Example 53ag]
29 | 2 | COc1nc(NC[C@H]2CCC[C@@H](c3ccc(C)cc3)O2)c(C)c(C(=O)N2CCC(N[C@H]3CCOC[C@H]3OC)CC2)n1 [Example 53aa]
30 | 7 | Cc1ccc([C@@H]2CCC[C@H](CNc3ncnc(C(=O)N4CCC(NC5CCOCC5F)CC4)c3C)O2)cc1 (stereo partly drawn) [Example 53v]
31 | 0.4 | CO[C@@H]1COCC[C@@H]1NC1CCN(C(=O)c2cc(NC[C@H]3CCC[C@@H](c4ccc(C(F)(F)F)cc4)O3)nc(C(F)(F)F)n2)CC1 [Example 53t]
32 | 0.3 | COc1nc(NC[C@H]2CCC[C@@H](c3ccc(OC(F)(F)F)cc3)O2)c(C)c(C(=O)N2CCC(N[C@@H]3CCOC[C@@H]3OC)CC2)n1 [Example 53ad]
33 | 98 | CO[C@H]1COCC[C@H]1NC1CCN(C(=O)c2ncnc(NC[C@@H]3CCC[C@H](c4ccc(OC(F)(F)F)cc4)O3)c2C)CC1 [Example 53c]
34 | 20 | CO[C@@H]1COCC[C@@H]1NC1CCN(C(=O)c2ncnc(NC[C@H]3CCC[C@@H](c4ccc(OC(F)(F)F)cc4)O3)c2C)CC1 [Example 53b]
35 | 1 | COc1nc(NC[C@H]2CCC[C@@H](c3ccc(C(F)(F)F)cc3)O2)c(C)c(C(=O)N2CCC(N[C@@H]3CCOC[C@@H]3OC)CC2)n1 [Example 53ab]
36 | 3 | Cc1c(NC[C@H]2CCC[C@@H](c3ccc(C(F)(F)F)cc3)O2)ncnc1C(=O)N1CCC(NC2CCOCC2F)CC1 (stereo partly drawn) [Example 53u]
37 | 0.2 | CO[C@H]1COCC[C@H]1NC1CCN(C(=O)c2cc(NC[C@H]3CCC[C@@H](c4ccc(C(F)(F)F)cc4)O3)nc(C(F)(F)F)n2)CC1 [Example 53s]
38 | 12 | CO[C@H]1COCC[C@H]1NC1CCN(C(=O)c2ncnc(NC[C@H]3CCC[C@@H](c4ccc(OC(F)(F)F)cc4)O3)c2C)CC1 [Example 53f]
39 | 5 | CO[C@H]1COCC[C@H]1N(C)C1CCN(C(=O)c2ncnc(NC[C@H]3CCC[C@@H](c4ccc(C(F)(F)F)cc4)O3)c2C)CC1 [Example 54a]
40 | 0.4 | CO[C@H]1COCC[C@H]1NC1CCN(C(=O)c2ncnc(NC[C@H]3CCC[C@@H](c4ccc(SC(F)(F)F)cc4)O3)c2C)CC1 [Example 53al]
41 | 0.6 | Cc1c(NC[C@H]2CCC[C@@H](c3ccc(OC(F)(F)F)cc3)O2)ncnc1C(=O)N1CCC(NC2CCOCC2F)CC1 (stereo partly drawn) [Example 53w]
42 | 0.3 | CO[C@@H]1COCC[C@@H]1NC1CCN(C(=O)c2ncnc(NC[C@H]3CCC[C@@H](c4ccc(SC(F)(F)F)cc4)O3)c2C)CC1 [Example 53am]
43 | 5 | COc1nc(NC[C@H]2CCC[C@@H](c3ccc(C)cc3)O2)cc(C(=O)N2CCC(N[C@H]3CCOC[C@H]3OC)CC2)n1 [Example 53n]
44 | 21 | CO[C@H]1COCC[C@H]1NC1CCN(C(=O)c2nccc(NC[C@H]3CCC[C@@H](c4ccc(C)cc4)O3)c2C)CC1 [Example 53j]
45 | 1 | COc1nc(NC[C@H]2CCC[C@@H](c3ccc(C(F)(F)F)cc3)O2)cc(C(=O)N2CCC(N[C@@H]3CCOC[C@@H]3OC)CC2)n1 [Example 53o]
